Source: a melting point compilation (Tetko et al.; mined from patent text by program, amines drawn as free bases though some values may be those of a salt)

SMILES | melting point [°C]
Nc1c(Cl)c(Br)cc2[nH]c(=O)c(=O)[nH]c12 | > 350
Cc1sc(-c2ccccc2)nc1COc1ccc(COc2ccccc2CC(=O)O)cc1 | 122 to 123
CCCCc1nn(-c2cc([N+](=O)[O-])ccc2C(F)(F)F)c(=O)n1Cc1ccc(-c2ccccc2S(=O)(=O)NC(C)(C)C)cc1 | 135 to 137
CC1(C)CCC(=O)Nc2ccc(Nc3ncc(Cl)c(Nc4ccccc4-c4ncccn4)n3)cc21 | 186
CC(C)N(C(N)=O)C(Oc1ccccc1)C(C)(O)Cl (stereo not given) | 154
O=C(NCCCCO)OCc1ccccc1 | 80 to 81
O=C1CCc2c1cccc2C(F)(F)F | 32 to 36
C#CCN(C(=O)C(F)(F)F)[C@H]1CCc2ccc([N+](=O)[O-])cc21 | 83 to 85
COC1OC(CO)C(O)C(OC(C)=O)C1Cl (stereo not given) | 105 to 106
O=C(NC(CS)Cc1ccccc1)N1CCN(c2ccc(Cl)cc2)CC1 (single isomer, unassigned; (+)) | 148
O=c1[nH]c2cc(Cl)ccc2c(=O)c2c(-c3ccccc3)n[nH]c12 | 328 to 331
O=C(Nc1cccnc1)c1ccc(OC(F)F)c2oc3ccc(C(F)(F)F)cc3c12 | 235 to 236
Cc1cccc(NC(=O)NCc2cccc3c2C(=O)N(C2CCC(=O)NC2=O)C3=O)c1 (stereo not given) | > 260
CC(=O)OC(C(C(=O)C(C)(C)C)n1cncn1)C(Cl)(Cl)Cl (stereo not given) | 115 to 119
Nc1ccc(C23CC(C2)C(=O)N(CC2CCCCC2)C3=O)cc1 | 140 to 146
CC(C)(NC(=O)C1=C(C(=O)Nc2cc(OC3CCCC3)c(Cl)cc2F)CCCC1)c1ccccc1 | 206 to 207
O=C(COc1ccc(-c2ccccc2)cc1Br)c1ccccc1 | 93 to 95
CC12CCC3c4ccc(O)cc4CCC3(C)C1CCC2O (stereo not given) | 168 to 170
CC(C)Oc1cc(F)c2c(c1)Oc1cc(F)ccc1S2(=O)=O | 148 to 151
N#Cc1cnc2sc(Cl)cc2c1Nc1ccc2[nH]ccc2c1 | 228
CC(C)C(C#N)c1ccc(OCc2ccccc2)c(OCc2ccccc2)c1 (stereo not given) | 75 to 76
c1ccc(COc2ccc(-c3nc(COc4ccc(CCCCn5ccnc5)cc4)co3)cc2)cc1 | 118 to 120
CC(=O)SCCC(=O)N1c2ccccc2CCC1C(=O)O (stereo not given) | 89 to 91

SMILES | melting point [°C]
C=CCN1CCCCNC1=C[N+](=O)[O-] | 82 to 83
CC1(OCc2ccccc2F)COC(c2cccc(F)c2)OC1 (stereo not given) | 83 to 84
O=C1c2ccccc2C(=O)N1CCc1cccc(C(F)(F)F)c1 | 69 to 71
O=C(c1ccccc1)c1ccccc1Nc1ncccc1[N+](=O)[O-] | 85
C=CC(=O)NC(CCC(=O)O)C(=O)O (stereo not given) | 125 to 127
CN(c1cccc2cc(C3=NCC(CC(=O)O)S3)[nH]c12)S(=O)(=O)c1cccs1 (stereo not given) | 232 to 234
Cc1ncc2n1-c1ccc(C#N)cc1C(c1ccccc1F)=NC2 | 198 to 203
CCCCCCCNC(=O)Nc1ccc(N2CCCCC2)cc1C(=O)NCC1CCN(C(c2ccccc2)c2ccccc2)CC1 | 166 to 168
Oc1cc(C(O)C2CCCCC2)c2ccccc2n1 (stereo not given) | > 250
O=C(NCc1ccc(Cl)cc1)c1cn2c(CSc3ccccc3)cc3cc(CN4CCOCC4)cc(c1=O)c32 | 173 to 175
Nc1c(CCO)cccc1C(O)c1ccc(Cl)cc1 (stereo not given) | 132 to 134
Cc1ccc2[nH]c(=O)cc(CCCl)c2c1 | 215 to 216
CC1(C)C(=O)NC(=O)c2ccccc21 | 84 to 88
N#Cc1ccc(-c2ccc(-c3ccc(C#N)o3)o2)cc1 | 194 to 195
Cc1cc(-c2c(C)nc3ccc(N4CCNC(C)(C)C4)nn23)ccn1 | 110 to 112
CN(C)S(=O)(=O)n1c(N)nc2ccc(C(=CCl)c3ccccc3)cc21 | 207 to 215
CCC1c2cccn2-c2ccc(F)cc2N1S(=O)(=O)c1cc(C)c(OC)c(C)c1 (stereo not given) | 140 to 142
COc1cc(C(=O)CCCN2CCC(OC(=O)c3cc(Cl)c(N)c4c3OCCC4)CC2)cc(OC)c1OC | 113
Clc1ccc(Cn2cc(C3(Cn4ccnc4)CCCC3)c3ccccc32)cc1 | 91 to 92
CCOCCOc1ccccc1COc1ccc2c(c1)C=C(C(=O)O)CCS2(=O)=O | 134 to 136
CN1CCC(O)(Cc2ccccc2F)CC1 | 93 to 95
CON1C=C2N=NC3=C(N2C1)N(C1CCCCC1)CC(C)=C3 | 174 to 177
Clc1ccc(N2CCN(CCCc3c4c(nn3-c3ccccc3)CCCC4)CC2)cc1 | 127 to 129

SMILES | melting point [°C]
CC(CO)n1nnc2cc3c(=O)n(C(C)Cn4ncnn4)nnc3cc2c1=O (stereo not given) | 153 to 154
O=C(O)c1cccc(Oc2cccc(-c3nn(Cc4ccc(C(F)(F)P(=O)(O)O)c(Br)c4)c(=Nc4ccc(Cl)c(Cl)c4)s3)c2)c1 | 210 to 215
O=S(=O)(Nc1ccc(OCc2ccc3ccccc3n2)cc1)c1ccc(Cl)cc1 | 125
O=C(O)Cc1c(C(=O)O)c2cc(Oc3ccc(OC(F)(F)F)cc3)ccc2n1-c1ccc(N2CCCCC2)cc1 | > 200
CC1(C)N=C(c2ccccc2Cl)c2cc([N+](=O)[O-])cc(Cl)c2NC1=O | 121
O=C(CCCN1CCC(c2noc3cc(F)ccc23)CC1)c1cc2c(s1)CCCNC2=O | 142 to 143
O=C1Cc2cc(NC(=O)C(=O)N3CCC(Cc4ccc(F)cc4)CC3)ccc2N1 | 152 to 154
O=C(NC(CS)Cc1ccccc1)N1CCCC1 (single isomer, unassigned; (+)) | 92 to 94
Cc1oc(-c2ccccc2)nc1COc1ccc(COc2cncc(CO)c2)cc1 | 128 to 130
N#CC1CC(=O)c2cc(F)ccc2O1 (stereo not given) | 87 to 89
COC(=O)c1ccc2[nH]c(=O)n(Cc3ccc(OC)cc3)c(=O)c2c1 | 235 to 237
COc1cc(Nc2c(C#N)cnc3cc(/C=C/CCN4CCN(C)CC4)c(OC)cc23)c(Cl)cc1Cl | 142 to 143
CN1CCN(c2ncc(-c3cnc4c(c3)N(Cc3c(F)ccc(F)c3Cl)CCN4)cn2)CC1 | 194 to 195
COc1ccc2c(C(=O)c3ccc(OC4CCCCC4N4CCCCCC4)cc3)c(-c3ccc(OCCN4CCCC4)cc3)sc2c1 (stereo not given) | 43.5 to 51.5
Oc1c2ncnc(S)c2nn1-c1ccccc1 | > 300
Nc1ccc(NC(=O)CCC(=O)O)cc1 | 180 to 181
O=C(Nc1ccc(F)cc1F)NN1CC=CCC1 | 136 to 137
CN1CC(CCCl)Oc2ccc(Cl)cc2C1=O (stereo not given) | 101 to 103
O=C(c1ccncc1)[N+]1([O-])CCC(=C2c3ccccc3CCn3ccnc32)CC1 (stereo not given) | 155 to 159
CCn1nnc(Nc2ccc3nc(NCc4ccccc4OC)ccc3c2)n1 | 190
CC(Cc1c[nH]c2ccccc12)(NC(=O)OC1C2CC3CC(C2)CC1C3)C(=O)NCCc1cccc(NC(=O)CCC(=O)O)c1 (stereo not given) | 78 to 82
Cc1ccc(N)c2c1CCC2=NNC(=N)N | > 250
CCC(CC)c1ccc(Cl)c2nc(Nc3cc(Cl)cc(Cl)c3)n(CCCCO)c12 | 208 to 210

Next, values leading:

melting point [°C] | SMILES
79 to 81 | COc1ccc2c(c1)C(CCCCNC(C)=O)=CCC2
229 to 230 | CCOP(=O)(OCC)c1ccc(NC(=O)C2Cc3c(cccc3C(C)C)C(=O)CS2(=O)=O)cc1 (stereo not given)
188 to 190 | Cn1c(=O)cc(CBr)c2ccccc21
81 | CCc1oc2ccccc2c1C(=O)c1ccc(OC)cc1
94.5 to 96.5 | CCOC(=O)c1c(C)nc2c(cnn2CC)c1NCCC(C)O (stereo not given)
120 to 122 | CCCCC(=O)N(CCOC)Cc1ccc(-c2ccccc2-c2nnn[nH]2)cc1
100 | Cc1cccc(-c2ccc3ccc(NC(=O)c4cccc(Br)c4)nc3n2)c1
174 to 176 | COc1ccc(C(=O)Nc2c(Cl)cc(CO)cc2Cl)cc1OC1CCCC1
94 to 97 | Cn1ncc(N)c1NCCO
139 to 142 | CN(C)Cc1ccc(CSCCNC2=NS(=O)N=C2N)o1 (stereo not given)
77 to 78 | CCCCCCCCCCCCC(=O)c1c[nH]c(C2(OC)OCCSSO2)c1 (stereo not given)
109 to 114 | CCOC(=O)CSc1nc(Cl)cc(Nc2ccccc2)n1
102 | CC(=O)c1cc(-c2ccc(C)cc2)c2c(c1)C(C)(C)CCC2(C)C
118 to 120 | CCOP(=O)(CNC(=O)OC(C)(C)C)CNC(=O)OC(C)(C)C
179 to 181 | CCN1C(=O)C(C)(C)c2ccc(C(=O)Nc3ccc(F)cc3)cc21
79 to 81 | CCOC(=O)c1cnn(-c2ccc(Cl)c(Cl)c2)c1C#N

melting point [°C] | SMILES
125 to 127 | CC(C)(C)NCC(O)COc1ccc(N)cc1 (stereo not given)
232 | CC(C)NC1=C(Cl)NC(N)(C(=O)NC#N)C=N1 (stereo not given)
160 to 161 | CSc1cc(C)nc(SC)c1NC(=O)CN1CCN(CCCSc2nc3ccccc3o2)CC1
107 to 108 | COC(=O)CCCC(=O)c1ccc(CCNC(C)=O)cc1
> 300 | CC(C)Cn1cnc2c(O)nc3ccccc3c21
198 to 199 | CCc1nn(CCOP(=O)(O)O)c(CC)c1Oc1cc(C#N)cc(C#N)c1
106 to 111 | CCNC(=O)c1cc([Si](C)(C)C)sc1[Si](C)(C)C
122 to 123 | CCCCCCCOc1ccc(C(=O)O)cc1OCCCCCCC
229 to 232 | Cc1oc2c(NC(=O)c3c(Cl)ccc(Cl)c3C(N)=O)cccc2c1C
77 to 79 | COc1cc2c(cc1Nc1ncc(Cl)c(Nc3ccccc3S(=O)(=O)N(C)C)n1)CCN(CCOC(=O)CN)CC2
153 | Cc1ncc(Cn2c(S)nc3ccccc32)o1
276 to 278 | O=C1NC(=S)SC1=Cc1ccccc1C(=O)O
198 to 199 | C[C@@H](Cc1c2n(c3cc(F)c(O)cc13)CCC2)NC(=O)OC(C)(C)C
121 to 123 | CCNc1cnc(-c2ccccc2)c(-c2ccccc2)n1
60 to 78 | COC(=O)c1cc(NC(=O)OC(C)(C)C)c(N)cc1I
